Measurements as given in article PMC5719457, “Pseudomonas aeruginosa zinc uptake in chelating environment is primarily mediated by the metallophore pseudopaline” (Scientific Reports, 2017).

Key:
PaCntL = target: T1, PaCntL (Pseudomonas aeruginosa, UniProt A0A0H2ZHV3); assay: TLC with […]-SAM; HILIC/ESI-MS; format: biochemical; conditions: product yNA
T1 construct: gene cntL; full length, C-terminal His6 tag (pET22b+), E. coli BL21

PaCntM = target: T2, PaCntM (Pseudomonas aeruginosa, UniProt A0A0H2ZH12); assay: fluorescence resonance energy transfer titration (Trp to NAD(P)H); format: binding
T2 construct: gene cntM; full length, N-terminal His6 tag (TEV-cleavable, pET-TEV), E. coli BL21
T2 sequence (A0A0H2ZH12 whole entry): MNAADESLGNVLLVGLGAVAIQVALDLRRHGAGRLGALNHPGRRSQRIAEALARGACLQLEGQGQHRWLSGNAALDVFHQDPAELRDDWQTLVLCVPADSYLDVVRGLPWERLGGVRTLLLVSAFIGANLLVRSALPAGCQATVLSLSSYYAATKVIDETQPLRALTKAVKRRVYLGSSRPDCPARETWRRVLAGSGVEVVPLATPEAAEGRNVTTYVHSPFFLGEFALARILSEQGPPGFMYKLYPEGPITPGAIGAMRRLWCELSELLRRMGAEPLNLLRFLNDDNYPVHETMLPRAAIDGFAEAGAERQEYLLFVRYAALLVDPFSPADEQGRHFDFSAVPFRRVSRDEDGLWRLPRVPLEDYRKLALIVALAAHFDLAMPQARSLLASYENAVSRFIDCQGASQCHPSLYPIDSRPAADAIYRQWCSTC

T1 sequence (A0A0H2ZHV3 whole entry): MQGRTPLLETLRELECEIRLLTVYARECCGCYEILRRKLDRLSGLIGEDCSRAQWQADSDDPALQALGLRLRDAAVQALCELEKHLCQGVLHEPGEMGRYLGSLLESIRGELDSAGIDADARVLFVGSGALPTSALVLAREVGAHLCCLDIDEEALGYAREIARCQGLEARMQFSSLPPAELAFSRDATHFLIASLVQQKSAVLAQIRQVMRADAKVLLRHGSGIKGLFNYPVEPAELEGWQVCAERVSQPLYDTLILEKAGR

**Q.** With `N[C@@H](Cc1cnc[nH]1)C(=O)O` [L-histidine] as the compound, how does the “TLC with [14C]-SAM; HILIC/ESI-MS” value (PaCntL; co-substrate SAM) read?
**A.** Only the incubation with L-histidine led to a novel band

**Q.** With `NC(=O)C1=CN([C@@H]2O[C@H](COP(=O)(O)OP(=O)(O)OC[C@H]3O[C@@H](n4cnc5c(N)ncnc54)[C@H](O)[C@@H]3O)[C@@H](O)[C@H]2O)C=CC1` [NADH] as the compound, how does the Kd (PaCntM) read?
**A.** 30 µM

**Q.** Which “TLC with [14C]-SAM; HILIC/ESI-MS” value (PaCntL; co-substrate L-histidine, labelled compound (carboxyl-14C) in TLC) does the source give for `C[S+](CC[C@H](N)C(=O)O)C[C@H]1O[C@@H](n2cnc3c(N)ncnc32)[C@H](O)[C@@H]1O` (stereo partly drawn) [SAM] here?
**A.** incubation of PaCntL with SAM and L-histidine led to the formation of the yNA
